This is an account of results in patent US20100099741A1, “Molecular Targets for Treatment of Learning and Memory Dysfunction” (priority 2008, published 2010).

For test [1], the system named is CREB. The test can be described thus: Western blot of CREB activity (Ser133 phosphorylation) in primary neurons after neurotransmitter ligands, forskolin or H-89. The test is classed as cell-based, rat. The source says:
With the primary neuronal cultures, we tested the ability of the constructed Boolean network to correctly predict the output activity, following an increase in the concentration of each input molecules. According to the logic equations of the CREB network (1), which provide the on/off state of CREB in response to the on/off states of input neurotransmitters (1), serotonin is the only input activates CREB. To verify this prediction experimentally, we treated primary neurons with equal micromolar concentrations (10 μM) of serotonin, glutamate, dopamine, GABA, and adenosine for 15 minutes and measured the activity of CREB by monitoring Ser133 phosphorylation (14). Receptors of these neurotransmitters are expressed in the primary cortical culture and this concentration is used in the literature to activate these receptors (17-22).
We also tried to verify the biological relevance of the stuck-at-1 and stuck-at-0 fault models used in Abdi et al (1). We tested the effect of serotonin on the activity of CREB when PKA, a highly vulnerable molecule in this network, is either activated (stuck-at-1) or inhibited (stuck-at-0), by forskolin or H-89, respectively. When PKA is stuck-at-1 or 0, the model predicts that serotonin should no longer activate CREB (1). To verify this experimentally, we treated primary neurons with serotonin in the presence or absence of either forskolin or H-89 (FIG. 1E). […] Thus, when the highly vulnerable molecule PKA is stuck-at-1, the network output is not correctly regulated by the input. […] Immunofluorescent analysis of CREB phosphorylation in primary neuron cultures exposed to vehicle, forskolin, or serotonin individually, or to serotonin following treatment with forskolin, was consistent with the results obtained by Western blotting for CREB phosphorylation. The cells were triple labeled with antibodies against Ser133 CREB (as a measure of CREB activity), Map-2 (as a marker that specifically labels neurons), and DRAQ-5 (as a nuclear marker that stains the nucleus of neuronal and normeuronal cells in primary culture). […] Consistent with the Western blot data (FIG. 1E), the effect of serotonin on the activity of CREB in neurons is attenuated, when serotonin was added after treatment with forskolin. […]
Protein extraction, and immunoblot analysis. […] Protein concentration was measured by Bio-Rad's protein assay and spectrometry at 595° A. Equal amounts of total protein were loaded on 4-12% gradient Bis-Tris gels, separated using the NuPAGE system (Invitrogen) and transferred onto nitrocellulose membrane. The membrane was probed with primary and secondary antibodies and signals were detected by chemiluminescence followed by autoradiography. […]
On the technique in general: In western blotting, separated proteins are transferred to a membrane and probed.

Test [2] concerns CREB. Particulars: previous studies (reference 18); cited from earlier work.
Test [3] has as its system CREB. The experiment in a line: Immunofluorescent analysis of CREB phosphorylation (Ser133) in primary cortical culture. The test is classed as cell-based, rat. From the text:
FIG. 6. Immunofluorescent analysis of primary cortical culture following treatment with vehicle, forskolin, serotonin, or serotonin and forskolin. Red represents the phosphorylated CREB (Ser^133) as a measure of CREB activity. Green represents the Map-2 staining as a specific neuronal marker and blue represent DRAQ-5 nuclear staining of all the cells in the primary culture (both neuronal and glial cells). Images were captured with the same confocal parameters for the four different treatment conditions.
We also tried to verify the biological relevance of the stuck-at-1 and stuck-at-0 fault models used in Abdi et al (1). We tested the effect of serotonin on the activity of CREB when PKA, a highly vulnerable molecule in this network, is either activated (stuck-at-1) or inhibited (stuck-at-0), by forskolin or H-89, respectively. When PKA is stuck-at-1 or 0, the model predicts that serotonin should no longer activate CREB (1). To verify this experimentally, we treated primary neurons with serotonin in the presence or absence of either forskolin or H-89 (FIG. 1E). […] Thus, when the highly vulnerable molecule PKA is stuck-at-1, the network output is not correctly regulated by the input. […]

The subject of test [4] is CREB. The test can be described thus: Western blot of endogenous CREB Ser133 phosphorylation and total CREB protein in primary cortical neurons after P/Q-type calcium channel or Gαi agonist/antagonist treatment. The test is classed as cell-based, rat. The procedure:
We altered the activity or abundance of endogenous L AND/OR P/Q-type calcium channels and Gαi in primary cortical neurons from rats and then assayed for the changes in endogenous CREB activity or abundance (see Methods). We used primary neuronal culture as a model system because it has the most similar CREB signaling network to the in vivo signaling networks of the mammalian brain.
Primary cortical culture. Primary cortical cultures were prepared from brains of embryonic day 17 to 18 Sprague-Dawley rats (Charles River). After trituration of cortical sections with a glass pipette, 2 to 4×10^5 neurons were plated on a coverslip (diameter: 12 mm) precoated with poly d-lysine (BD Biocoat). For biochemical analysis, primary cortical cells were plated in 35 mm dishes precoated with poly d-lysine (˜3×10^6 neurons/dish). Neurons were grown in NEUROBASAL Medium supplemented with 0.5 mM L-glutamine, B27 (2%), and N2 (1%) supplements.
Protein extraction, and immunoblot analysis. Primary neurons were cultured as described. Cells were homogenized in ice cold lysate buffer (0.25 M Tris, pH 7.5) containing protease inhibitors (Protease Inhibitor Cocktail tablets, Boehringer Mannheim) and phosphatase inhibitors (Phosphatase Inhibitor Cocktails I & II, Sigma) and lysed through three cycles of freezing (in liquid nitrogen) and thawing (in 37° C. water bath). Protein concentration was measured by Bio-Rad's protein assay and spectrometry at 595° A. Equal amounts of total protein were loaded on 4-12% gradient Bis-Tris gels, separated using the NuPAGE system (Invitrogen) and transferred onto nitrocellulose membrane. The membrane was probed with primary and secondary antibodies and signals were detected by chemiluminescence followed by autoradiography. The following antibodies were used: anti-CREB antibody (Cell Signaling, 1:1000), anti-phospho Ser^133 CREB antibody (Cell Signaling, 1:1000), anti P/Q type calcium channel antibody (Chemicon, 1:1000), and anti-actin antibody (Sigma, 1:1000).
Analysis of CREB regulation by P/Q-type calcium channels or Gαi. Primary cortical neurons were cultured as described. We followed the methods of Dolmetsch et al. (13) to analyze the effect of calcium channel blockers on CREB activity. We characterized the signaling properties of the endogenous P/Q-type calcium channels by monitoring the endogenous activity and total protein levels of CREB. In order to minimize the effect of other elements of calcium or G protein signaling following neuronal depolarization, all experiments were performed without depolarizing the neurons. Previous time-course studies have shown that short-term Ser^133 phosphorylation of CREB are transient events and prolonged Ser^133 phoaphorylation (more than 40 minutes) is required for transcriptional activity (13, 14, 15). Therefore, in these experiments we analyzed the endogenous Ser^133 phosphorylation and total CREB protein abundance following at least 2 hours treatment with agonist or antagonists of P/Q-type calcium channels and 2 hours treatment with agonist or antagonist of Gαi, ω-Agatoxin IVA (Calbiochem), pertussis toxin (Sigma), and Mas-7 (Calbiochem) were dissolved in the appropriate vehicle and added to the medium. Following the treatment, cortical neurons were harvested, lysed, and subjected to Western blot analysis as described.

[5] abbreviates: 2 hours treatment, pertussis toxin approximately 0.1 or 0.2 μg/ml, MAS-7 approximately 5 or 10 μM.
Where [6] appears, read: long-term (12 h) treatment, approximately 1 μM, vs vehicle.
Setting [7] is: short-term (2.5 h) treatment, approximately 1 μM, vs vehicle.

For the compound `O=S(=O)(NCCNC/C=C/c1ccc(Br)cc1)c1cccc2cnccc12` [H-89], the “serotonin-stimulated activity of CREB under inhibition of PKA” value in test [1] (about 10 μM H-89 30 minutes followed by 15 minutes about 10 μM serotonin) is “prevents serotonin from stimulating the activity of CREB”.

On to `NCCc1c[nH]c2ccc(O)cc12` [serotonin], for which, in test [2], the “Ser133 CREB phosphorylation” value is “can induce”. Besides, in test [1] (10 μM for 15 minutes, primary neurons, vs vehicle), the “activity of CREB (Ser133 phosphorylation)” value was “most robust effect”. In addition, in test [1] (about 10 μM forskolin 30 minutes followed by 15 minutes about 10 μM serotonin), the “activity of CREB on serotonin treatment following activation of PKA by forskolin, compared to serotonin only” value is listed as “did not affect the activity of CREB”. Moreover, in test [1] (about 10 μM, forskolin 30 minutes, serotonin 15 minutes, primary neurons), the “activity of CREB, individual treatments” value is “activate CREB”. Further, in test [3] (primary cortical culture, triple labeled with phospho-CREB, Map-2, DRAQ-5), the “activity of CREB (phospho-Ser133 staining) in neuronal and non-neuronal cells” value is recorded as “only increased the activity of CREB in the neurons”. Besides, the “effect of serotonin on the activity of CREB in neurons when added after forskolin” value in test [3] (serotonin added after treatment with forskolin) was “attenuated”.

Take pertussis toxin: in test [4] (setting [5]), the “Ser133 phosphorylation of CREB” value is “increase” and the “abundance of CREB” value is given as “increase”.

For ω-Agatoxin IVA, in test [4] (setting [6]), the “abundance of CREB” value was “decreased” and the “phosphorylation of CREB at Ser133” value was “decreased”. Besides, in test [4] (setting [7]), the “phosphorylation of CREB at Ser133” value is given as “increased” and the “total abundance of CREB” value was “without changing”.
